Measured values reported in PubChem BioAssay AID1963971 (Molecular Pharmacology Branch, DTP, NCI, 2024).

System: 953936-095-R-J2-PDC spheroids with HUVEC/MSC, viability
Experiment: Anticancer human tumor 953936-095-R-J2-PDC patient-derived cervical squamous cell carcinoma cell line growth inhibition [PI3K]
Settings: for IC50: curve of first compound; for viability, T/C: stronger effect = lower value
Summary of the method: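 Targeted small molecules plus PI3K inhibitors, half-log dose series from Cmax (default top 10 microM), were applied to heterotypic spheroids of cancer cells with HUVEC and MSCs. Viability indicated growth inhibition.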

[1] = second compound 0.00316 µM, first compound 0.0316 µM
[2] = second compound 0.00316 µM, first compound 0.1 µM
[3] = second compound 0.00316 µM, first compound 0.316 µM
[4] = second compound 0.00316 µM, first compound 1 µM
[5] = second compound 0.00316 µM, first compound 3.16 µM
[6] = second compound 0.00316 µM, first compound 10 µM
[7] = second compound 0.01 µM, first compound 0.0316 µM
[8] = second compound 0.01 µM, first compound 0.1 µM
[9] = second compound 0.01 µM, first compound 0.316 µM
[10] = second compound 0.01 µM, first compound 1 µM
[11] = second compound 0.01 µM, first compound 3.16 µM
[12] = second compound 0.01 µM, first compound 10 µM
[13] = second compound 0.0316 µM, first compound 0.0316 µM
[14] = second compound 0.0316 µM, first compound 0.1 µM
[15] = second compound 0.0316 µM, first compound 0.316 µM
[16] = second compound 0.0316 µM, first compound 1 µM
[17] = second compound 0.0316 µM, first compound 3.16 µM
[18] = second compound 0.0316 µM, first compound 10 µM
[19] = second compound 0.1 µM, first compound 0.0316 µM
[20] = second compound 0.1 µM, first compound 0.1 µM
[21] = second compound 0.1 µM, first compound 0.316 µM
[22] = second compound 0.1 µM, first compound 1 µM
[23] = second compound 0.1 µM, first compound 3.16 µM
[24] = second compound 0.1 µM, first compound 10 µM
[25] = second compound 0.316 µM, first compound 0.0316 µM
[26] = second compound 0.316 µM, first compound 0.1 µM
[27] = second compound 0.316 µM, first compound 0.316 µM
[28] = second compound 0.316 µM, first compound 1 µM
[29] = second compound 0.316 µM, first compound 3.16 µM
[30] = second compound 0.316 µM, first compound 10 µM
[31] = second compound 1 µM, first compound 0.0316 µM
[32] = second compound 1 µM, first compound 0.1 µM
[33] = second compound 1 µM, first compound 0.316 µM
[34] = second compound 1 µM, first compound 1 µM
[35] = second compound 1 µM, first compound 3.16 µM
[36] = second compound 1 µM, first compound 10 µM
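Note: spheroids exposed to compounds for seven days before read-out.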

In the case of C=CC(=O)N1CCN(c2nc(=O)n(-c3c(C)ccnc3C(C)C)c3nc(-c4c(O)cccc4F)c(F)cc23)C(C)C1 (stereo unspecified) + COc1c(OCCCN2CCOCC2)ccc2c3n(c(=NC(=O)c4cnc(N)nc4)nc12)CCN3, the IC50 (second compound 0.00316 µM) is reported as > 10000 nM, the IC50 (second compound 0.01 µM) is reported as > 10000 nM and the IC50 (second compound 0.0316 µM) is reported as < 31.6 nM. The IC50 (second compound 0.1 µM) was < 31.6 nM, the IC50 (second compound 0.316 µM) was < 31.6 nM and the IC50 (second compound 1 µM) was < 31.6 nM. It also gave a viability, T/C [1] of 88.7%, a viability, T/C [2] of 91% and a viability, T/C [3] of 108%. The viability, T/C [4] was 106%, the viability, T/C [5] was 101% and the viability, T/C [6] was 93.1%. It also gave a viability, T/C [7] of 72.8%, a viability, T/C [8] of 79% and a viability, T/C [9] of 79.3%. It also gave a viability, T/C [10] of 84%, a viability, T/C [11] of 89.9% and a viability, T/C [12] of 91.9%. For the same compound, the viability, T/C [13] was 41.4%, the viability, T/C [14] was 43.6% and the viability, T/C [15] was 44.4%. For the same compound, the viability, T/C [16] was 46%, the viability, T/C [17] was 51.2% and the viability, T/C [18] was 45.1%. For the same compound, the viability, T/C [19] was 18.6%, the viability, T/C [20] was 18.4% and the viability, T/C [21] was 18.4%. For the same compound, the viability, T/C [22] was 20.2%, the viability, T/C [23] was 20.4% and the viability, T/C [24] was 15.2%. The viability, T/C [25] was 7.53%, the viability, T/C [26] was 7.13% and the viability, T/C [27] was 6.33%. It also gave a viability, T/C [28] of 6.9%, a viability, T/C [29] of 6.5% and a viability, T/C [30] of 3.82%. It also gave a viability, T/C [31] of 1.94%, a viability, T/C [32] of 1.84% and a viability, T/C [33] of 1.67%. For the same compound, the viability, T/C [34] was 1.83%, the viability, T/C [35] was 1.85% and the viability, T/C [36] was 1.04%.

In the case of Cn1ncc(Cl)c1-c1cc(C(=O)NC(CN)Cc2cccc(F)c2)sc1Cl (stereo unspecified) + COc1c(OCCCN2CCOCC2)ccc2c3n(c(=NC(=O)c4cnc(N)nc4)nc12)CCN3, the IC50 (second compound 0.00316 µM) is reported as 486 nM, the IC50 (second compound 0.01 µM) is reported as 337 nM and the IC50 (second compound 0.0316 µM) is reported as < 31.6 nM. For the same compound, the IC50 (second compound 0.1 µM) was < 31.6 nM, the IC50 (second compound 0.316 µM) was < 31.6 nM and the IC50 (second compound 1 µM) was < 31.6 nM. It also gave a viability, T/C [1] of 81.2%, a viability, T/C [2] of 85.4% and a viability, T/C [3] of 54.1%. The viability, T/C [4] was 36.5%, the viability, T/C [5] was 17.8% and the viability, T/C [6] was 10.2%. The viability, T/C [7] was 69.4%, the viability, T/C [8] was 68.6% and the viability, T/C [9] was 49.8%. It also gave a viability, T/C [10] of 28.7%, a viability, T/C [11] of 14.4% and a viability, T/C [12] of 8.14%. It also gave a viability, T/C [13] of 39.1%, a viability, T/C [14] of 36.8% and a viability, T/C [15] of 32.5%. For the same compound, the viability, T/C [16] was 19.1%, the viability, T/C [17] was 9.8% and the viability, T/C [18] was 4.58%. It also gave a viability, T/C [19] of 21.8%, a viability, T/C [20] of 17.8% and a viability, T/C [21] of 14.3%. It also gave a viability, T/C [22] of 12.9%, a viability, T/C [23] of 6.24% and a viability, T/C [24] of 2.41%. It also gave a viability, T/C [25] of 5.73%, a viability, T/C [26] of 5.77% and a viability, T/C [27] of 6.01%. It also gave a viability, T/C [28] of 3.54%, a viability, T/C [29] of 3.19% and a viability, T/C [30] of 1.52%. The viability, T/C [31] was 1.54%, the viability, T/C [32] was 1.61% and the viability, T/C [33] was 1.15%. The viability, T/C [34] was 1.37%, the viability, T/C [35] was 1.11% and the viability, T/C [36] was 0.46%.

With Cn1nccc1Nc1nccc(-c2ccn(C(CO)c3ccc(Cl)c(F)c3)c(=O)c2)n1 (stereo unspecified) + COc1c(OCCCN2CCOCC2)ccc2c3n(c(=NC(=O)c4cnc(N)nc4)nc12)CCN3 the IC50 (second compound 0.00316 µM) was > 10000 nM, the IC50 (second compound 0.01 µM) was > 10000 nM and the IC50 (second compound 0.0316 µM) was < 31.6 nM. The IC50 (second compound 0.1 µM) was < 31.6 nM, the IC50 (second compound 0.316 µM) was < 31.6 nM and the IC50 (second compound 1 µM) was < 31.6 nM. The viability, T/C [1] was 79.8%, the viability, T/C [2] was 78.6% and the viability, T/C [3] was 85.1%. It also gave a viability, T/C [4] of 68.8%, a viability, T/C [5] of 69.8% and a viability, T/C [6] of 67.5%. The viability, T/C [7] was 63.5%, the viability, T/C [8] was 64.7% and the viability, T/C [9] was 67.3%. For the same compound, the viability, T/C [10] was 61.7%, the viability, T/C [11] was 59.4% and the viability, T/C [12] was 49.1%. For the same compound, the viability, T/C [13] was 39.4%, the viability, T/C [14] was 38.2% and the viability, T/C [15] was 36.2%. For the same compound, the viability, T/C [16] was 30.5%, the viability, T/C [17] was 32.3% and the viability, T/C [18] was 31.4%. For the same compound, the viability, T/C [19] was 16.1%, the viability, T/C [20] was 15.6% and the viability, T/C [21] was 12.8%. The viability, T/C [22] was 10.8%, the viability, T/C [23] was 8.15% and the viability, T/C [24] was 5.83%. It also gave a viability, T/C [25] of 4.89%, a viability, T/C [26] of 4.56% and a viability, T/C [27] of 3.55%. For the same compound, the viability, T/C [28] was 2.04%, the viability, T/C [29] was 1.28% and the viability, T/C [30] was 1.21%. For the same compound, the viability, T/C [31] was 1.1%, the viability, T/C [32] was 1.11% and the viability, T/C [33] was 0.44%. The viability, T/C [34] was 0.35%, the viability, T/C [35] was 0.28% and the viability, T/C [36] was 0.34%.
